{"source": "patent US8198447B2", "about": "“Fused tricyclic compound having aldose reductase inhibitory activity” (National University Corporation University of Toyama, priority 2007, dated 2012)", "key": {"Aldose reductase II": {"biological_target": "Aldose reductase II (Homo sapiens, UniProt P15121)", "assay": "Aldose reductase inhibitory activity (NADPH decrease at 340 nm, DL-glyceraldehyde substrate)", "type": "biochemical", "settings": "pH 6.2, 100 mM DL-glyceraldehyde, 1.5 mM NADPH", "method": "A reaction solution containing a 200 mM of a phosphate buffer solution (pH 6.2), 1.5 mM of reduced nicotinamide adenine dinucleotide phosphate (NADPH), 1 mg/ml of bovine serum albumin, a test compound, and 100 mM of DL-glyceraldehyde as a substrate was prepared. Aldose reductase II (5.1×10^−1 unit/ml) was added to the solution to initiate the reaction, and the amount of NADPH reduced by the reaction was measured at an absorption wavelength of 340 nm using a spectrophotometer."}, "mice": {"test_system": "mice", "assay": "Acute toxicity test", "type": "in vivo", "settings": "500 mg/kg body weight, three mice", "method": "Compound 28 was orally administered to three mice at a dose of 500 mg/kg body weight, the maximum amount considered to be prescribed for the mouse in one dose."}}}
{"smiles": "O=C(O)Cn1c2c(c3c(F)cc(F)cc31)CCN(Cc1ccccc1)C2=S", "note": "[Compound 28, (2-Benzyl-5,7-difluoro-1-thioxo-1,2,3,4-tetrahydro-β-carbolin-9-yl)acetic acid]", "values": [{"measurement": "IC50", "setting": "Aldose reductase II", "value": 2500, "unit": "nM"}, {"measurement": "Survival after single oral dose", "setting": "mice", "value": "all of the three mice survived"}, {"measurement": "Abnormalities in internal organs, action, etc.", "setting": "mice; oral", "value": "no abnormalities being observed"}]}
